Results on twelve compounds are retold here after patent publication US12084467B2, “Therapeutic compounds for HIV virus infection” (Gilead Sciences, Inc., priority 2021, dated 2024).

A short description of series [1]: Kinetic solubility analysis (CLND: total chemiluminescent nitrogen determination). The conditions noted are these: 1.0% DMSO, 24-hour incubation at ambient temperature, maximum theoretical concentration 100 μM; for pH 2 solubility: 0.1N HCl; for pH 7 solubility: 1×PBS buffer (pH 7.4).
A short description of series [2]: Solubility in simulated intestinal fluids (FaSSIF / FeSSIF). The conditions noted are these: 25 °C, thermodynamic from solid.
Setting [3] is: fasted state simulated intestinal fluid (FaSSIF), fassif.
Setting [4] is: fed state simulated intestinal fluid (FeSSIF), fessif.

≈ marks a conversion by molar mass, not a printed value. Some results are limits rather than exact numbers.

Take `CN1CCN(C(=O)N(c2nn(CC(F)(F)F)c3c(-c4ccc(C#CC(C)(C)S(C)(=O)=O)nc4[C@H](Cc4cc(F)cc(F)c4)NC(=O)Cn4nc(C(F)(F)F)c5c4C(F)(F)[C@@H]4C[C@H]54)ccc(Cl)c23)S(C)(=O)=O)CC1` [Compound 1, N-(4-chloro-7-(2-((S)-1-(2-((3bS,4aR)-5,5-difluoro-3-(trifluoromethyl)-3b,4,4a,5-tetrahydro-1H-cyclopropa[3,4]cyclopenta[1,2-c]pyrazol-1-yl)acetamido)-2-(3,5-difluorophenyl)ethyl)-6-(3-methyl-3-(methylsulfonyl)but-1-yn-1-yl)pyridin-3-yl)-1-(2,2,2-trifluoroethyl)-1H-indazol-3-yl)-4-methyl-N-(methylsulfonyl)piperazine-1-carboxamide]: in series [1], the “pH 2 solubility” value was found to be 39 μM and the “pH 7 solubility” value was 1 μM.

Take `CC(C)(C#Cc1ccc(-c2ccc(Cl)c3c(N(C(=O)N4CCC(N5CCCCC5)CC4)S(C)(=O)=O)nn(CC(F)(F)F)c23)c([C@H](Cc2cc(F)cc(F)c2)NC(=O)Cn2nc(C(F)(F)F)c3c2C(F)(F)[C@@H]2C[C@H]32)n1)S(C)(=O)=O` [Compound 2, N-(4-chloro-7-(2-((S)-1-(2-((3bS,4aR)-5,5-difluoro-3-(trifluoromethyl)-3b,4,4a,5-tetrahydro-1H-cyclopropa[3,4]cyclopenta[1,2-c]pyrazol-1-yl)acetamido)-2-(3,5-difluorophenyl)ethyl)-6-(3-methyl-3-(methylsulfonyl)but-1-yn-1-yl)pyridin-3-yl)-1-(2,2,2-trifluoroethyl)-1H-indazol-3-yl)-N-(methylsulfonyl)-[1,4′-bipiperidine]-1′-carboxamide]: in series [1], the “pH 2 solubility” value stood at 17 μM and the “pH 7 solubility” value is on record as 1 μM.

For `CC(C)(C#Cc1ccc(-c2ccc(Cl)c3c(N(C(=O)C4CNC4)S(C)(=O)=O)nn(CC(F)(F)F)c23)c([C@H](Cc2cc(F)cc(F)c2)NC(=O)Cn2nc(C(F)(F)F)c3c2C(F)(F)[C@@H]2C[C@H]32)n1)S(C)(=O)=O` [Compound 5, N-(4-chloro-7-(2-((S)-1-(2-((3bS,4aR)-5,5-difluoro-3-(trifluoromethyl)-3b,4,4a,5-tetrahydro-1H-cyclopropa[3,4]cyclopenta[1,2-c]pyrazol-1-yl)acetamido)-2-(3,5-difluorophenyl)ethyl)-6-(3-methyl-3-(methylsulfonyl)but-1-yn-1-yl)pyridin-3-yl)-1-(2,2,2-trifluoroethyl)-1H-indazol-3-yl)-N-(methylsulfonyl)azetidine-3-carboxamide], in series [1], the “pH 2 solubility” value is 34 μM and the “pH 7 solubility” value is listed as 1 μM.

For `CC(C)(C#Cc1ccc(-c2ccc(Cl)c3c(N(C(=O)C4CN(C(=N)N)C4)S(C)(=O)=O)nn(CC(F)(F)F)c23)c([C@H](Cc2cc(F)cc(F)c2)NC(=O)Cn2nc(C(F)(F)F)c3c2C(F)(F)[C@@H]2C[C@H]32)n1)S(C)(=O)=O` [Compound 6, 1-carbamimidoyl-N-(4-chloro-7-(2-((S)-1-(2-((3bS,4aR)-5,5-difluoro-3-(trifluoromethyl)-3b,4,4a,5-tetrahydro-1H-cyclopropa[3,4]cyclopenta[1,2-c]pyrazol-1-yl)acetamido)-2-(3,5-difluorophenyl)ethyl)-6-(3-methyl-3-(methylsulfonyl)but-1-yn-1-yl)pyridin-3-yl)-1-(2,2,2-trifluoroethyl)-1H-indazol-3-yl)-N-(methylsulfonyl)azetidine-3-carboxamide], in series [1], the “pH 2 solubility” value amounted to 15 μM and the “pH 7 solubility” value is 9 μM.

`CC(C)(C#Cc1ccc(-c2ccc(Cl)c3c(N(C(=O)[C@H]4C[C@H](N)C4)S(C)(=O)=O)nn(CC(F)(F)F)c23)c([C@H](Cc2cc(F)cc(F)c2)NC(=O)Cn2nc(C(F)(F)F)c3c2C(F)(F)[C@@H]2C[C@H]32)n1)S(C)(=O)=O` [Compound 7, (trans)-3-amino-N-(4-chloro-7-(2-((S)-1-(2-((3bS,4aR)-5,5-difluoro-3-(trifluoromethyl)-3b,4,4a,5-tetrahydro-1H-cyclopropa[3,4]cyclopenta[1,2-c]pyrazol-1-yl)acetamido)-2-(3,5-difluorophenyl)ethyl)-6-(3-methyl-3-(methylsulfonyl)but-1-yn-1-yl)pyridin-3-yl)-1-(2,2,2-trifluoroethyl)-1H-indazol-3-yl)-N-(methylsulfonyl)cyclobutane-1-carboxamide]: in series [1], the “pH 2 solubility” value was 70 μM and the “pH 7 solubility” value amounted to 1 μM.

For `CC(C)(C#Cc1ccc(-c2ccc(Cl)c3c(N(C(=O)[C@H]4C[C@H](NC(=O)C(=O)O)C4)S(C)(=O)=O)nn(CC(F)(F)F)c23)c([C@H](Cc2cc(F)cc(F)c2)NC(=O)Cn2nc(C(F)(F)F)c3c2C(F)(F)[C@@H]2C[C@H]32)n1)S(C)(=O)=O` [Compound 8], in series [1], the “pH 2 solubility” value is given as <1/1 μM and the “pH 7 solubility” value is recorded as <1/1 μM.

The solubility is the dissolved amount per volume that the medium holds. Low readings indicate a poorly soluble substance, high ones a readily soluble substance. As for `CC(C)(C#Cc1ccc(-c2ccc(Cl)c3c(N(C(=O)[C@H]4C[C@H](NC(=N)N)C4)S(C)(=O)=O)nn(CC(F)(F)F)c23)c([C@H](Cc2cc(F)cc(F)c2)NC(=O)Cn2nc(C(F)(F)F)c3c2C(F)(F)[C@@H]2C[C@H]32)n1)S(C)(=O)=O` [Compound 9, trans-N-(4-chloro-7-(2-((S)-1-(2-((3bS,4aR)-5,5-difluoro-3-(trifluoromethyl)-3b,4,4a,5-tetrahydro-1H-cyclopropa[3,4]cyclopenta[1,2-c]pyrazol-1-yl)acetamido)-2-(3,5-difluorophenyl)ethyl)-6-(3-methyl-3-(methylsulfonyl)but-1-yn-1-yl)pyridin-3-yl)-1-(2,2,2-trifluoroethyl)-1H-indazol-3-yl)-3-guanidino-N-(methylsulfonyl)cyclobutane-1-carboxamide], the solubility in series [2] (setting [3]) is 17 µg/mL (≈ 15.4 µM). In series [2] (setting [4]), this compound came in with a solubility of 83 µg/mL (≈ 74.9 µM). Further, in series [1], the “pH 2 solubility” value was found to be 9 μM and the “pH 7 solubility” value came to 2 μM.

In series [2] (setting [3]), `CC(C)(C#Cc1ccc(-c2ccc(Cl)c3c(N(C(=O)[C@@H]4C[C@@H]4COP(=O)(O)O)S(C)(=O)=O)nn(CC(F)(F)F)c23)c([C@H](Cc2cc(F)cc(F)c2)NC(=O)Cn2nc(C(F)(F)F)c3c2C(F)(F)[C@@H]2C[C@H]32)n1)S(C)(=O)=O` [Compound 11] gave a solubility of 401 µg/mL (≈ 350 µM). This compound yielded a solubility in series [2] (setting [4]) of 355 µg/mL (≈ 310 µM). In addition, in series [1], the “pH 2 solubility” value was 1 μM and the “pH 7 solubility” value is 61 μM.

`CC(C)(C#Cc1ccc(-c2ccc(Cl)c3c(N(C(=O)[C@@H]4C[C@H](C(=O)O)C[C@H](C(=O)O)C4)S(C)(=O)=O)nn(CC(F)(F)F)c23)c([C@H](Cc2cc(F)cc(F)c2)NC(=O)Cn2nc(C(F)(F)F)c3c2C(F)(F)[C@@H]2C[C@H]32)n1)S(C)(=O)=O` [Compound 15, (1R,3S,5r)-5-((4-chloro-7-(2-((S)-1-(2-((3bS,4aR)-5,5-difluoro-3-(trifluoromethyl)-3b,4,4a,5-tetrahydro-1H-cyclopropa[3,4]cyclopenta[1,2-c]pyrazol-1-yl)acetamido)-2-(3,5-difluorophenyl)ethyl)-6-(3-methyl-3-(methylsulfonyl)but-1-yn-1-yl)pyridin-3-yl)-1-(2,2,2-trifluoroethyl)-1H-indazol-3-yl)(methylsulfonyl)carbamoyl)cyclohexane-1,3-dicarboxylic acid]: the solubility in series [2] (setting [3]) is 253 µg/mL (≈ 217 µM); in series [2] (setting [4]), 38 µg/mL (≈ 32.6 µM). Besides, in series [1], the “pH 2 solubility” value is 1/1 μM. Moreover, the “pH 7 solubility” value in series [1] is 1/1 μM.

For the compound `CC(C)(C#Cc1ccc(-c2ccc(Cl)c3c(N(C(=O)[C@H]4C[C@H]4C(=O)O)S(C)(=O)=O)nn(CC(F)(F)F)c23)c([C@H](Cc2cc(F)cc(F)c2)NC(=O)Cn2nc(C(F)(F)F)c3c2C(F)(F)[C@@H]2C[C@H]32)n1)S(C)(=O)=O` [Compound 17, (1R,2S)-2-((4-chloro-7-(2-((S)-1-(2-((3bS,4aR)-5,5-difluoro-3-(trifluoromethyl)-3b,4,4a,5-tetrahydro-1H-cyclopropa[3,4]cyclopenta[1,2-c]pyrazol-1-yl)acetamido)-2-(3,5-difluorophenyl)ethyl)-6-(3-methyl-3-(methylsulfonyl)but-1-yn-1-yl)pyridin-3-yl)-1-(2,2,2-trifluoroethyl)-1H-indazol-3-yl)(methylsulfonyl)carbamoyl)cyclopropane-1-carboxylic acid], in series [1], the “pH 2 solubility” value is 3/3 μM and the “pH 7 solubility” value is on record as 3/3 μM.

For the compound `CC(C)(C#Cc1ccc(-c2ccc(Cl)c3c(N(C(=O)N4CCC(C(=O)O)CC4)S(C)(=O)=O)nn(CC(F)(F)F)c23)c([C@H](Cc2cc(F)cc(F)c2)NC(=O)Cn2nc(C(F)(F)F)c3c2C(F)(F)[C@@H]2C[C@H]32)n1)S(C)(=O)=O` [Compound 25, 1-((4-chloro-7-(2-((S)-1-(2-((3bS,4aR)-5,5-difluoro-3-(trifluoromethyl)-3b,4,4a,5-tetrahydro-1H-cyclopropa[3,4]cyclopenta[1,2-c]pyrazol-1-yl)acetamido)-2-(3,5-difluorophenyl)ethyl)-6-(3-methyl-3-(methylsulfonyl)but-1-yn-1-yl)pyridin-3-yl)-1-(2,2,2-trifluoroethyl)-1H-indazol-3-yl)(methylsulfonyl)carbamoyl)piperidine-4-carboxylic acid], in series [1], the “pH 2 solubility” value was found to be 1 μM and the “pH 7 solubility” value is recorded as 19 μM.

As for `CC(C)(C#Cc1ccc(-c2ccc(Cl)c3c(N(C(=O)N4CCC[C@H]4CN)S(C)(=O)=O)nn(CC(F)(F)F)c23)c([C@H](Cc2cc(F)cc(F)c2)NC(=O)Cn2nc(C(F)(F)F)c3c2C(F)(F)[C@@H]2C[C@H]32)n1)S(C)(=O)=O` [Compound 31, (S)-2-(aminomethyl)-N-(4-chloro-7-(2-((S)-1-(2-((3bS,4aR)-5,5-difluoro-3-(trifluoromethyl)-3b,4,4a,5-tetrahydro-1H-cyclopropa[3,4]cyclopenta[1,2-c]pyrazol-1-yl)acetamido)-2-(3,5-difluorophenyl)ethyl)-6-(3-methyl-3-(methylsulfonyl)but-1-yn-1-yl)pyridin-3-yl)-1-(2,2,2-trifluoroethyl)-1H-indazol-3-yl)-N-(methylsulfonyl)pyrrolidine-1-carboxamide], in series [1], the “pH 2 solubility” value came to 61 μM and the “pH 7 solubility” value is recorded as 14 μM.
